Read-outs that look alike come from different tables or passages of the source.
What was measured:
UDPGT1A1 = target: T1, UDPGT1A1 (Homo sapiens, UniProt P22309); assay: Inhibition of bilirubin glucuronidation by UDPGT; type: biochemical
T1 construct: purchased SigmaAldrich U7254
T1 sequence (P22309 26-533): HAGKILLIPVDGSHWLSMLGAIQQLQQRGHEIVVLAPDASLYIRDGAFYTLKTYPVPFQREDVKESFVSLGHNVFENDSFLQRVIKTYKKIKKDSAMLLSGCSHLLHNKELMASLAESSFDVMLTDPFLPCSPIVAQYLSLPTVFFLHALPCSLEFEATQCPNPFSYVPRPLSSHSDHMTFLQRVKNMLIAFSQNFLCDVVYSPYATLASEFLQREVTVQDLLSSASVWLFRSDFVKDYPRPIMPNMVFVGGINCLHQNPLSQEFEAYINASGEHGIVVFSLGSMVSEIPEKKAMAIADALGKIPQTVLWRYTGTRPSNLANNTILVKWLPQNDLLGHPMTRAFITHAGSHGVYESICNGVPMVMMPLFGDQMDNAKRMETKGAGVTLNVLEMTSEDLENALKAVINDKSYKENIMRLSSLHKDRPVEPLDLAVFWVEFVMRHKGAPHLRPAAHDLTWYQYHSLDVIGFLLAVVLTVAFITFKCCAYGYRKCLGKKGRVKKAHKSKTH
Source text: UDP-glucuronosyltransferase 1A1 isozenzyme (Cat. #U7254), uridine-5′-diphosphoglucuronic acid (UDPGA, #U5625), bilirubin (B), naringenin (N5893), octyl gallate (#48700) and quercetin (Q0125) were purchased from SigmaAldrich (St. Louis, Mo.). Bilirubin dimethyl ester (#B612-9), biliverdin dimethyl ester (#B610-9), biliverdin hydrocholoride (#B655-9), mesobilirubin (#M588-9), urobilin hydrochloride (#U590-1), and stercobilin hydrochloride (#S594-9) were purchased from Frontier Scientific Inc. (Logan, Utah).
The enzyme activity assay method was based on those of Adlard and Lathe (Biochem. J., 1970, 119:437-445). Incubation mixtures (total vol. 1.25 ml, pH 7.9) were prepared in tubes kept in ice and had the following composition: bilirubin (0.1 mM), UDP-glucuronic acid (0.25 mM), serum (5.8%, v/v), Mg2+ (5.0 mM), microsomal preparation (0.5-1.5 mg of protein), 10 mM tris-0.14 M KCl (pH 8.0), and 10% (v/v) dimethylsulphoxide. Incubation (10 min, 37° C.) was carried out with shaking (100 cycles/min). After incubation, tubes were placed in ice-water (5 min) and direct-reacting bilirubin was determined. All incubations were done in duplicate. Enzyme activity was expressed as μg of bilirubin conjugated/h per mg of protein. Differences from controls of more than 10% were regarded as significant.

HMG-CoA reductase = target: T2, HMG-CoA reductase (Homo sapiens, UniProt P04035); assay: HMG-CoA reductase assay in liver microsomes; type: biochemical; conditions: moderately high concentrations; 30 mg/L (FIG. 6)
T2 construct: from tissue; host or cells: liver microsomes
T2 sequence (P04035 1-888): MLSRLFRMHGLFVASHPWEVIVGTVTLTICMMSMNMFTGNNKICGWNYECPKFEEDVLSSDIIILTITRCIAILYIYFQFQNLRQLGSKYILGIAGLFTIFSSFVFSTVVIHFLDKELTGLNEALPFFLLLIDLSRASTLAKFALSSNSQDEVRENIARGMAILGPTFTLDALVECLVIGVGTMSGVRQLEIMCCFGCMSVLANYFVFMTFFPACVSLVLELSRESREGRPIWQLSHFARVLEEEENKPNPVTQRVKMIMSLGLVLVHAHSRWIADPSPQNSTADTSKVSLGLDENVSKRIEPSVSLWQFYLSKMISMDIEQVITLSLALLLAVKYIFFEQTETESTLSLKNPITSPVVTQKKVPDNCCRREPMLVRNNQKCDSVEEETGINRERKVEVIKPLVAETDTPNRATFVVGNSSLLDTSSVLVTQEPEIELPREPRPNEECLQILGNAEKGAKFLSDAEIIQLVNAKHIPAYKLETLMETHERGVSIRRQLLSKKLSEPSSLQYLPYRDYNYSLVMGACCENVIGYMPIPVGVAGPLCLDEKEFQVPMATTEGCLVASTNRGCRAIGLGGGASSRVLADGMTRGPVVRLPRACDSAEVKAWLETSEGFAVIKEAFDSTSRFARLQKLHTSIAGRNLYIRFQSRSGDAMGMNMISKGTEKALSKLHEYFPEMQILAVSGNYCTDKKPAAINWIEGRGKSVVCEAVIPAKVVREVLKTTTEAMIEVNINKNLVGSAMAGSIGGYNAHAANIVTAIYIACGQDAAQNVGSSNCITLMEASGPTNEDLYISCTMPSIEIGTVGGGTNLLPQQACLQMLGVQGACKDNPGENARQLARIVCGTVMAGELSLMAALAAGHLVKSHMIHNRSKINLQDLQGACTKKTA
Protocol: Liver microsomes, which are used to investigate cholesterol metabolism, were prepared as follows. Liver was homogenized in 50 mM Tris HCl buffer (pH 7.4), containing 0.3 M sucrose, 10 mM DTT, and 10 mM EDTA. The homogenate was centrifuged at 20,000×g for 15 min, and the supernatant was centrifuged at 100,000×g for 60 min. The resulting microsomal fraction was suspended in 3 ml of 0.1 M potassium phosphate buffer (pH 7.4), containing 1 mM EDTA and 5 mM DTT. Aliquots were immediately frozen in liquid nitrogen and stored at −20° C. until analysis.
Assay of HMG-CoA reductase. Microsomal suspensions of […], containing 5 mg protein, were preincubated for 5 min at 37° C. with […] of 0.1 M potassium phosphate buffer (pH 7.4), containing 1 mM EDTA and 12 mM glucose-6-phosphate. The assay was initiated by adding […] of cofactor-substrate solution (0.1 mM HMG-CoA, 3 mM MADPH, and 2 U/ml glucose-6-phosphate dehydrogenase). The incubation was performed at 37+ C. for 30 min and was terminated by the addition of […] of 1 M MaOH. After lactonization, the mevalonolactone was separated by thin layer chromatography. The eluate, which contained mevalonolactone, was collected in a scintillation vial. The radioactivity was then counted in a Packard 3320 scintillation spectrometer.

cyclooxygenase (COX) = assay: Cyclooxygenase (COX) inhibition; type: biochemical, human; conditions: concentration of 10 mg/L (FIG. 4)
Protocol: The activity of COX was determined by the procedure described in Assay Design's Enzyme Immunometric Assay (EIA) kit (Assay Design Inc., TiterZyme EIA cat.#900-094). Briefly, the kit uses a monoclonal antibody to human COX-II immobilized on a microtiter plate to bind the human COX in the standard or sample. After a short incubation the excess standard or sample is washed out and a rabbit polyclonal antibody to human COX labeled with the enzyme. Horseradish peroxidase is added. This labeled antibody binds to the human COX captured on the plate. After a short incubation the excess labeled antibody is washed out and substrate is added. The substrate reacts with the labeled antibody bound to the human COX captured on the plate. After a short incubation, the enzyme reaction is stopped and the color generated is read at 450 nm. The measured optical density is directly proportional to the concentration of human COX.
Purified cyclooxygenases (COX) were obtained from Kayman Chemical Company and used to examine the inhibitory effect of bilirubin with arachidonic acid as the substrate. High purity of bilirubin (SigmaAldrich #B4126), biliverdin (Frontier Scientific Inc., Cat. B655-9) and hemin (SigmaAldrich, #51280) were used as received.

[1] = Table 4, bilirubin 0.1 mM as substrate, read-out: Apparent Ki
[2] = read-out: inhibition constant (Ki)

Molecule | Ki (UDPGT1A1; [1]) [µM] | further results
(±)-2,3-Dihydro-5,7-dihydroxy-2-(4-hydroxyphenyl)-4H-1-benzopyran-4-one; 4′,5,7-Trihydroxyflavanone [Naringenin] | 4.8 | Ki (UDPGT1A1; [2]): 5 µM; IC50 (UDPGT1A1; under the testing conditions): ~16 µM
CCCCCCCCOC(=O)c1cc(O)c(O)c(O)c1 [Octyl gallate ester] | 7.6 | 
C=CC1=C(C)c2cc3[n-]c(cc4[n-]c(cc5nc(cc1n2)C(C)=C5C=C)c(C)c4CCC(=O)O)c(CCC(=O)O)c3C.O.[Fe+2] [Hematin, reference compound] |  | inhibition of HMG-CoA reductase activity (comparison) (HMG-CoA reductase): strongly inhibit
C=CC1=C(C)/C(=C/C2=NC(=C/c3[nH]c(/C=C4\NC(=O)C(C)=C4C=C)c(C)c3CCC(=O)O)/C(CCC(=O)O)=C2C)NC1=O [biliverdin, 2,7,13,17-tetramethyl-1,19-dioxo-3,18-divinyl-1,19,22,24-tetrahydro-21H-biline-8,12-dipropanoic acid] | 19.9 | inhibition of HMG-CoA reductase activity (comparison) (HMG-CoA reductase): strongly inhibit
CCC1=C(C)/C(=C/c2[nH]c(Cc3[nH]c(/C=C4\NC(=O)C(C)=C4CC)c(C)c3CCC(=O)O)c(CCC(=O)O)c2C)NC1=O [Mesobilirubin IXα, 3,18-diethyl-2,7,13,17-tetramethyl-1,19-dioxo-1,19,22,24-tetrahydro-21H-biline-8,12-dipropanoic acid] | 2.3 | 
C=CC1=C(C)C(OC)N/C1=C\c1[nH]c(Cc2[nH]c(/C=C3\NC(OC)C(C=C)=C3C)c(C)c2CCC(=O)O)c(CCC(=O)O)c1C (stereo not shown) [DimethoxybilirubinIXα] | 1.3 | Ki (UDPGT1A1; [2]): ~1 µM
hemin |  | reducing COX activity (comparison) (cyclooxygenase (COX)): effective in reducing COX activity

Continued, in another order:

Ki (UDPGT1A1; [1]) [µM] | Molecule | further results
1.5 | C=CC1=C(C)/C(=C/c2[nH]c(Cc3[nH]c(/C=C4\NC(=O)C(C=C)=C4C)c(C)c3CCC(=O)O)c(CCC(=O)O)c2C)NC1=O [Bilirubin IIIα] | 
1.7 | C=CC1=C(C)C(=O)N/C1=C\c1[nH]c(Cc2[nH]c(/C=C3\NC(=O)C(C)=C3C=C)c(C)c2CCC(=O)O)c(CCC(=O)O)c1C [Bilirubin XIIIα] | 

From patent publication US20080070971A1, “Medical Use of Bilirubin and its Structural Analogues” (priority 2006, published 2008)
